This is an account of results in patent US20230255906A1, “Targeting Serpin B9 in Cancer” (The Brigham and Women`s Hospital, Inc., priority 2020, published 2023).

For this experiment, the system named is B16 melanoma cells. The experiment is described as follows: Caspase-3 activity assay (EnzChek Caspase-3 Assay Kit), caspase-3 induction in tumor cells. For all read-outs here: test concentration or dose not given here. It counts as cell-based, mouse. Particulars: for Caspase-3 induction, Normalized to Formula (III) (%): relative to compound of Formula (III). The source says:
The EnzChek® Caspase-3 Assay Kit was used to detect apoptosis by assaying for increases in caspase-3 activities. The basis for the assay was rhodamine 110 bis-(N-CBZ-L-aspartyl-L-glutamyl-L-valyl-L-aspartic acid amide) (Z-DEVD-R110). This substrate is a bisamide derivative of rhodamine 110 (R110) containing DEVD peptides covalently linked to each of R110's amino groups, thereby suppressing the dye's visible absorption and its fluorescence. Upon enzymatic cleavage, the nonfluorescent bisamide substrate is converted in a two-step process first to a fluorescent monoamide and then to an even more fluorescent R110.
At least 1×10^6 cells of the lysate were used for each reaction. B16 cells were treated with compounds to induce apoptosis. A negative control was prepared by incubating cells in the absence of compounds. The cells were incubated with compounds for 24 hrs and washed in PBS. Each cell sample or control was resuspended in 50 μL of the 1×cell lysis buffer. Cells were lysed by incubating on ice for 30 minutes, and the lysed cells were centrifuged to pellet the cellular debris. 50 μL of the supernatant was transferred from each sample to individual microplate wells. 50 μL of the 1× cell lysis buffer was used as a no-enzyme control to determine the background fluorescence of the substrate. 50 μL of the 2×substrate working solution was added to each sample and control. The microplate was covered, and the samples were incubated at room temperature for approximately 30 minutes. The fluorescence was measured by a fluorescence microplate reader (excitation/emission ˜496/520 nm) using excitation and emission filters.
The ability of this small molecule inhibitor to inhibit intracellular Sb9 was then evaluated. As a marker for cell penetration, the induction of caspase-3 activity in B16 melanoma cells as a surrogate marker for increased GrB activity was measured.
The induction of caspase-3 activity in B16 melanoma cells as a surrogate marker for increased GrB activity was also measured for other small molecules (compounds of Formulas (V) and (VI) as described herein).

Turning to `COc1cccc(-c2nc3ccc(C(=O)NCC4CCCCO4)cc3o2)c1` (stereo not drawn) [2-(3-methoxyphenyl)-N-(tetrahydro-2H-pyran-2-ylmethyl)-1,3-benzoxazole-6-carboxamide], the “Ratio of caspase-3 activity to Formula (III)” value (from here on “Ratio of caspase-3 activity”) amounted to 1.425. Consider `COc1cccc(-c2nc3ccc(C(=O)NCC4CCOCC4)cc3o2)c1` [2-(3-methoxyphenyl)-N-(tetrahydro-2H-pyran-4-ylmethyl)-1,3-benzoxazole-6-carboxamide], for which the “Ratio of caspase-3 activity” value was 0.09286. On to `COc1cccc(-c2nc3ccc(C(=O)NCc4cnc(C)cn4)cc3o2)c1` [2-(3-methoxyphenyl)-N-[(5-methylpyrazin-2-yl)methyl]-1,3-benzoxazole-6-carboxamide], for which the “Ratio of caspase-3 activity” value amounted to 0.1387. Still for that read-out and setting: the figure for `COc1cccc(-c2nc3ccc(C(=O)N(C)CCC4CCCCO4)cc3o2)c1` (stereo not drawn) [2-(3-methoxyphenyl)-N-methyl-N-[2-(tetrahydro-2H-pyran-2-yl)ethyl]-1,3-benzoxazole-6-carboxamide] is 0.1405.

For `COc1cccc(-c2nc3ccc(C(=O)N(C)Cc4nnc(C)o4)cc3o2)c1` [2-(3-methoxyphenyl)-N-methyl-N-[(5-methyl-1,3,4-oxadiazol-2-yl)methyl]-1,3-benzoxazole-6-carboxamide], the “Ratio of caspase-3 activity” value was found to be 0.7091. Turning to `COc1cccc(-c2nc3ccc(C(=O)N(C)Cc4cc(C)on4)cc3o2)c1` [2-(3-methoxyphenyl)-N-methyl-N-[(5-methylisoxazol-3-yl)methyl]-1,3-benzoxazole-6-carboxamide], the “Ratio of caspase-3 activity” value is listed as 0.2402. For `CCCc1cc(CN(C)C(=O)c2ccc3nc(-c4cccc(OC)c4)oc3c2)n[nH]1` [2-(3-methoxyphenyl)-N-methyl-N-[(5-propyl-1H-pyrazol-3-yl)methyl]-1,3-benzoxazole-6-carboxamide], the “Ratio of caspase-3 activity” value was found to be 0.1531. Take `COCCCNC(=O)c1cccc2oc(N(C)C)nc12` [2-(dimethylamino)-N-(3-methoxypropyl)-1,3-benzoxazole-4-carboxamide]: the “Caspase-3 induction, Normalized to Formula (III) (%)” value is −31.049%. On to `COCCCNC(=O)c1cccc2nc(N(C)C)oc12` [2-(dimethylamino)-N-(3-methoxypropyl)-1,3-benzoxazole-7-carboxamide], for which the “Caspase-3 induction, Normalized to Formula (III) (%)” value is −39.581%.

Take `CCN(C)C(=O)c1cccc2oc(N(C)C)nc12` [2-(dimethylamino)-N-ethyl-N-methyl-1,3-benzoxazole-4-carboxamide]: the “Caspase-3 induction, Normalized to Formula (III) (%)” value is given as −25.6782%.

On to `CCN(C)C(=O)c1cccc2nc(N(C)C)oc12` [2-(dimethylamino)-N-ethyl-N-methyl-1,3-benzoxazole-7-carboxamide], for which the “Caspase-3 induction, Normalized to Formula (III) (%)” value is −30.9946%. As for `COc1cc(Br)c(C(=O)NCC(C)C)cc1OC` [2-bromo-4,5-dimethoxy-N-(2-methylpropyl)benzamide], the “Caspase-3 induction, Normalized to Formula (III) (%)” value is reported as −58.9646%. `COCCCNC(=O)c1cc(OC)c(OC)cc1Br` [2-bromo-4,5-dimethoxy-N-(3-methoxypropyl)benzamide]: the “Caspase-3 induction, Normalized to Formula (III) (%)” value is reported as −85.9622%. For `COc1cc(Br)c(C(=O)NCC2CCOCC2)cc1OC` [2-bromo-4,5-dimethoxy-N-[(oxan-4-yl)methyl]benzamide], the “Caspase-3 induction, Normalized to Formula (III) (%)” value was −43.6422%. Take `COc1cc(Br)c(C(=O)NCC2CCOC2)cc1OC` (stereo not drawn) [2-bromo-4,5-dimethoxy-N-[(oxolan-3-yl)methyl]benzamide]: the “Caspase-3 induction, Normalized to Formula (III) (%)” value was −2.142%. As for `COc1cc(Br)c(C(=O)NCCN(C)C)cc1OC` [2-bromo-N-[2-(dimethylamino)ethyl]-4,5-dimethoxybenzamide], the “Caspase-3 induction, Normalized to Formula (III) (%)” value is −70.1327%. On the same count and under the same terms, as for `COc1cc(Br)c(C(=O)NC2CCCC2)cc1OC` [2-bromo-N-cyclopentyl-4,5-dimethoxybenzamide], the figure is −49.8913%.

As to `CCN(C)C(=O)c1cc(OC)c(OC)cc1Br` [2-bromo-N-ethyl-4,5-dimethoxy-N-methylbenzamide], the “Caspase-3 induction, Normalized to Formula (III) (%)” value is recorded as −74.0106%. Consider `O=C(c1ccc2nc(C3CCCCC3)oc2c1)N1CCCC1` [2-cyclohexyl-6-(pyrrolidine-1-carbonyl)-1,3-benzoxazole], for which the “Caspase-3 induction, Normalized to Formula (III) (%)” value was −29.7019%. Same read-out and setting: as for `COCCCNC(=O)c1ccc2nc(C3CCCCC3)oc2c1` [2-cyclohexyl-N-(3-methoxypropyl)-1,3-benzoxazole-6-carboxamide], the figure is −42.1813%; as for `O=C(NC1CCCC1)c1ccc2nc(C3CCCCC3)oc2c1` [2-cyclohexyl-N-cyclopentyl-1,3-benzoxazole-6-carboxamide], 26.2507%; as for `CCN(C)C(=O)c1ccc2nc(C3CCCCC3)oc2c1` [2-cyclohexyl-N-ethyl-N-methyl-1,3-benzoxazole-6-carboxamide], 1.1915%. In the case of `O=C(c1ccc2nc(C3CC3)oc2c1)N1CCCC1` [2-cyclopropyl-6-(pyrrolidine-1-carbonyl)-1,3-benzoxazole], the “Caspase-3 induction, Normalized to Formula (III) (%)” value was −27.4144%.

On to `COCCCNC(=O)c1ccc2nc(C3CC3)oc2c1` [2-cyclopropyl-N-(3-methoxypropyl)-1,3-benzoxazole-6-carboxamide], for which the “Caspase-3 induction, Normalized to Formula (III) (%)” value is listed as −4.759%. On to `CCN(C)C(=O)c1ccc2nc(C3CC3)oc2c1` [2-cyclopropyl-N-ethyl-N-methyl-1,3-benzoxazole-6-carboxamide], for which the “Caspase-3 induction, Normalized to Formula (III) (%)” value is on record as 33.9690%. With `CCOc1ccc(C(=O)N2CCCC2)cc1O` [2-ethoxy-5-(pyrrolidine-1-carbonyl)phenol], the “Caspase-3 induction, Normalized to Formula (III) (%)” value is reported as −21.427%.

`COc1cccc(-c2nc3ccc(C(=O)N4CCN(CCC(N)=O)CC4)cc3o2)c1` [3-(4-{[2-(3-methoxyphenyl)-1,3-benzoxazol-6-yl]carbonyl}-1-piperazinyl)propanamide]: the “Ratio of caspase-3 activity” value is recorded as 1.077.

Consider `CC(C)NC(=O)CCNC(=O)c1ccc2nc(-c3ccccc3)oc2c1` [3-[(2-phenyl-1,3-benzoxazol-6-yl)formamido]-N-(propan-2-yl)propanamide], for which the “Ratio of caspase-3 activity” value is on record as 1.371.

With `COc1cc(C(=O)NCC2CCOCC2)ccc1OCCC(C)C` [3-methoxy-4-(3-methylbutoxy)-N-[(oxan-4-yl)methyl]benzamide], the “Caspase-3 induction, Normalized to Formula (III) (%)” value is given as −31.8318%. As to `COc1cc(C(=O)NCC2CCOCC2)ccc1OC(C)C` [3-methoxy-N-[(oxan-4-yl)methyl]-4-(propan-2-yloxy)benzamide], the “Caspase-3 induction, Normalized to Formula (III) (%)” value is −66.2788%. Turning to `COc1cc(C(=O)NCC2CCOC2)ccc1OC(C)C` (stereo not drawn) [3-methoxy-N-[(oxolan-3-yl)methyl]-4-(propan-2-yloxy)benzamide], the “Caspase-3 induction, Normalized to Formula (III) (%)” value is recorded as −2.673%. Take `Cc1cc(O)c(O)cc1C(=O)NCC(C)C` [4,5-dihydroxy-2-methyl-N-(2-methylpropyl)benzamide]: the “Caspase-3 induction, Normalized to Formula (III) (%)” value was −27.9096%.

On to `COCCCNC(=O)c1cc(O)c(O)cc1C` [4,5-dihydroxy-N-(3-methoxypropyl)-2-methylbenzamide], for which the “Caspase-3 induction, Normalized to Formula (III) (%)” value is given as −55.7377%.
